Data published in BindingDB's records for doi:10.1021/jm9708341 (University of Leipzig, 1998).

Molecular target: T1, Neutrophil elastase (Homo sapiens, UniProt P08246)
T1 sequence (P08246 whole entry): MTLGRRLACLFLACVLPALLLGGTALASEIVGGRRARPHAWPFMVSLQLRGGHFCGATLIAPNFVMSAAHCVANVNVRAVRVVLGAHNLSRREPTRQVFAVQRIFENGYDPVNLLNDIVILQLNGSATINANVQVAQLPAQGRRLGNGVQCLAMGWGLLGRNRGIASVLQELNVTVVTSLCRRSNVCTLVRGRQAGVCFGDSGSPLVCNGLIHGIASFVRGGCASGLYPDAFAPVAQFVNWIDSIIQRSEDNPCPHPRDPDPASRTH
Experiment: Steady state inhibition constant for Human Leukocyte Elastase inhibition
Details: for kon: read-out: kon (M-1-s-1)

koff	kon	Structure (SMILES)
8.5e-05 s⁻¹	1130 M⁻¹ s⁻¹	Cc1sc2nc(NC(C)C)oc(=O)c2c1C [2-Isopropylamino-5,6-dimethyl-thieno[2,3-d][1,3]oxazin-4-one]
0.00156 s⁻¹	272000 M⁻¹ s⁻¹	CSc1nc2sc3c(c2c(=O)o1)CCCC3 [2-Methylsulfanyl-5,6,7,8-tetrahydro-benzo[4,5]thieno[2,3-d][1,3]oxazin-4-one]
0.000163 s⁻¹	685 M⁻¹ s⁻¹	COC(=O)CSc1nc2sc(C)c(C)c2c(=O)o1 [(5,6-Dimethyl-4-oxo-4H-thieno[2,3-d][1,3]oxazin-2-ylsulfanyl)-acetic acid methyl ester]
